Test results reported in US11998602B2, “Methods for promoting myelination and for treating demyelinating diseases” (The Scripps Research Institute, priority 2018, dated 2024).

Tested on: OPCs
Assay: Binary global metabolomics analysis of taurine co-treatment
Format: cell-based, rat
Settings: for Cysteine pool, increase with taurine / Serine pool, increase with taurine / GSH level, increase with taurine / Cysteine level, increase with taurine / Serine level, increase with taurine: 20 mM taurine; for Cysteine pool, increase with taurine / Serine pool, increase with taurine: 3 days
Procedure: Rat primary optic nerve OPCs were isolated by panning (>99% A2B5^+) and cultured in poly-D-lysine (10 μg/ml)-coated TC dishes in OPC culture media (Neurobasal Media, Invitrogen) supplemented with B27-without vitamin A (Invitrogen), 1× non-essential amino acids, 1× Glutamax, 1× anti-anti, β-mercaptoethanol and PDGF-AA (50 ng/ml; Peprotech) at 37° C. with 5% CO2. The culture medium was replaced every 48 h and cells were collected before the confluency reached 60% to maintain a naive state. For differentiation, OPCs were plated at 1 million cells in one 10 cm petri-dish filled with differentiation media, which is identical to the culture media, but with PDGF-AA at 2 ng/ml. T3 and DMSO were used as the positive control and negative control, respectively. Five replicates of cells were collected at different times (0, 3, and 6 days) for metabolomics studies.
Global metabolomics and lipidomics. Cells incubated in differentiation medium were collected at Day 0, 3 and 6 for both the T3 and DMSO treated OPC. The cells were first rinsed with PBS twice to completely remove the culture medium and then scraped into a 1.5 mL Eppendorf vial using 500-1000 μL PBS. Subsequently, cells were collected by aspirating the supernatant after centrifugation at 1,000 rpm at 4° C. for 3 min. The global metabolites were extracted from cell pellets by a methanol:acetonitrile:water (2:2:1, v/v) solvent mixture. A volume of 600 μL of cold solvent was added to each pellet, vortexed for 30 s, and soaked in liquid nitrogen for 1 min. Samples were then allowed to thaw at room temperature and then sonicated for 10 min. This freeze-thaw process was repeated for additional twice. To further precipitate proteins, samples were incubated for 1 h at […], followed by centrifugation at 16,000 g at 4° C. for 15 min. The protein concentration of the cells was measured in the final pellet after centrifugation using BCA assay. The resulting supernatant was removed and evaporated to dryness in a vacuum concentrator (LABCONCO CentriVap Benchtop). The dry extracts were then reconstituted in the appropriate volume of acetonitrile/water (1:1, v/v), normalized by the protein concentration with the lowest concentration approximately 50 μL, sonicated for 10 min, and centrifuged for 15 min at 16,000 g and 4° C. to remove insoluble debris. The supernatants were transferred to HPLC vials with inserts and stored at −80° C. prior to LC/MS analysis. The Folch method was used to extract the lipids from OPCs treated with T3 and DMSO for 6 days. A mixture of 600 μL, chloroform/MeOH (2:1, v/v) was used in the freeze-thaw extraction method as described above, and a subsequent addition of 600 μL, of water was performed. Using this liquid-liquid extraction method, the organic phase was collected, dried and finally reconstituted in IPA/MeOH/H2O (5:1:4, v/v/v) before analysis.
Cell extracts were analyzed on a 6550 iFunnel QTOF mass spectrometer (Agilent Technologies) coupled with a 1290 UPLC system (Agilent Technologies). For global metabolomics, HPLC was carried out on a Luna Aminopropyl, 3 μm, 150 mm×1.0 mm I.D. HILIC column (Phenomenex). The mobile phase was composed of A=20 mM ammonium acetate and 40 mM ammonium hydroxide in 95% water (v/v) and B=95% acetonitrile. The remaining 5% components were either acetonitrile or water, respectively. A linear gradient from 100% B (0-5 min) to 100% A (50-55 min) was applied. A 10 min re-equilibration time was applied to the HILIC column for re-equilibration and maintenance of reproducibility. The flow rate was 50 μL/min, and the sample injection volume was 5 μL. ESI source conditions were set as follows: dry gas temperature, 200° C.; flow, 11 L/min, fragmentor, 380 V; sheath gas temperature, 300° C.; flow, 9 L/min; nozzle voltage, 500 V; capillary voltage, −500 V in ESI negative mode. The instrument was set to acquire data over the m/z range 50-1000, with the MS acquisition rate of 1 spectra/s. […]

## NCCS(=O)(=O)O [taurine, 2-aminoethanesulfonic acid]
T3 1 μM
  Cysteine pool, increase with taurine: 58.8 fold
  Serine pool, increase with taurine: 17.1 fold
Benztropine 0.5 μM
  Cysteine pool, increase with taurine: 154.4 fold
  Serine pool, increase with taurine: 10.0 fold
Miconazole 2 μM
  Cysteine pool, increase with taurine: 76.5 fold
  Serine pool, increase with taurine: 19.4 fold
Day 3, T3 1 μM
  GSH level, increase with taurine: 1.8 fold
Day 6, T3 1 μM
  Cysteine level, increase with taurine: 26.6 fold
  GSH level, increase with taurine: 6.1 fold
  Serine level, increase with taurine: 2.1 fold
Day 6, benztropine 0.5 μM
  Cysteine level, increase with taurine: 44.7 fold
  Serine level, increase with taurine: 13.4 fold
Day 6, miconazole 2 μM
  Cysteine level, increase with taurine: 47.2 fold
  Serine level, increase with taurine: 92.5 fold
Benztropine (0.5 μM) or miconazole (2 μM) treated cultures, both time points
  Changes in GSH and glutamate with taurine: only minimally altered
